Like-named read-outs stand apart in the source and are kept apart here.
Assays:
[1] = rats; oral CBD 120 mg/kg in Cremophor; cited from earlier work
[2] = Brain pharmacokinetics of CBD and THC after single oral dose of Cannabis sativa extract; conditions: for mean concentration over time: Table 7; for AUC(0-t): AUC0–24, brain
[3] = mice; oral CBD 120 mg/kg in Cremophor; cited from earlier work
[4] = Whole-blood pharmacokinetics of CBD and THC after single oral dose of Cannabis sativa extract; conditions: for CBD levels in whole blood: range of levels; for concentration at 0.5 h / concentration at 1 h / concentration at 2 h / concentration at 4 h / concentration at 6 h / concentration at 24 h / AUC(0-t) / Cmax / MRT / Tmax / CL / Vd: whole blood; for concentration at 0.5 h / concentration at 1 h / concentration at 2 h / concentration at 4 h / concentration at 6 h / concentration at 24 h: oral; for AUC(0-t): AUC0–24, whole blood
[5] = cited from earlier work
[6] = 24 volunteers, 0.078 mg/kg CBD + […] THC, cited from earlier work
[7] = 12 healthy volunteers; chocolate cookies with 0.57 mg/kg CBD + 0.28 mg/kg THC; after 1.5–3 h; cited from earlier work
[8] = male, Wistar, rat, brain, po, 30 mg/kg, Cremophor, single oral dose of extract 30 mg/kg
[9] = male, Wistar, rat, brain, po, 30 mg/kg, Rapae oleum, single oral dose of extract 30 mg/kg
[10] = male, Wistar, rat, 30 mg/kg, Mean Concentration ± SD, blood, Rapae oleum, single oral dose of extract 30 mg/kg
[11] = male, Wistar, rat, 30 mg/kg, Mean Concentration, blood, Cremophor, single oral dose of extract 30 mg/kg
[12] = male, Wistar, rat, 30 mg/kg, mean concentration over time, Blood/Cremophor, single oral dose of extract 30 mg/kg, Table 7
[13] = male, Wistar, rat, 30 mg/kg, mean concentration over time, Blood/Rapae Oleum, single oral dose of extract 30 mg/kg, Table 7
[14] = male, Wistar, rat, po, 30 mg/kg, Cremophor, single oral dose of extract 30 mg/kg
[15] = male, Wistar, rat, po, 30 mg/kg, Rapae oleum, single oral dose of extract 30 mg/kg
[16] = Cremophor, single oral dose of extract 30 mg/kg
[17] = Rapae oleum, single oral dose of extract 30 mg/kg
[18] = 1 h after gelatin capsules with extract

In the case of `C=C(C)[C@@H]1CCC(C)=C[C@H]1c1c(O)cc(CCCCC)cc1O` [CBD, cannabidiol], the “brain peak CBD concentration” value [1] is given as 8.6 µg/g, the peak whole-blood concentration [1] is given as roughly 2 µg/mL and the “mean concentration over time” value ([2]; Brain/Cremophor, 0.5 h, single oral dose of extract 30 mg/kg) is given as 274.994. The “mean concentration over time” value ([2]; Brain/Cremophor, 1 h, single oral dose of extract 30 mg/kg) was 213.491, the “mean concentration over time” value ([2]; Brain/Cremophor, 2 h, single oral dose of extract 30 mg/kg) was 81.1135 and the “mean concentration over time” value ([2]; Brain/Cremophor, 4 h, single oral dose of extract 30 mg/kg) was 52.1185. The “mean concentration over time” value ([2]; Brain/Cremophor, 6 h, single oral dose of extract 30 mg/kg) was 57.7145, the “mean concentration over time” value ([2]; Brain/Cremophor, 24 h, single oral dose of extract 30 mg/kg) was 3.604 and the “mean concentration over time” value ([2]; Brain/Rapae oleum, 0.5 h, single oral dose of extract 30 mg/kg) was 23.327. For the same molecule, the “mean concentration over time” value ([2]; Brain/Rapae oleum, 1 h, single oral dose of extract 30 mg/kg) was 65.391, the “mean concentration over time” value ([2]; Brain/Rapae oleum, 2 h, single oral dose of extract 30 mg/kg) was 301.388 and the “mean concentration over time” value ([2]; Brain/Rapae oleum, 4 h, single oral dose of extract 30 mg/kg) was 263.466. The “mean concentration over time” value ([2]; Brain/Rapae oleum, 6 h, single oral dose of extract 30 mg/kg) was 59.650, the “mean concentration over time” value ([2]; Brain/Rapae oleum, 24 h, single oral dose of extract 30 mg/kg) was 9.797 and the Kp ([2]; male, Wistar, rat, brain / whole blood, po, 30 mg/kg, AUCbrain:AUC whole blood (AUC0–24 ratio), Cremophor, single oral dose of extract 30 mg/kg) was 0.95. It also gave a Kp ([2]; male, Wistar, rat, brain / whole blood, po, 30 mg/kg, AUCbrain:AUC whole blood (AUC0–24 ratio), Rapae oleum, single oral dose of extract 30 mg/kg) of 1.54, a concentration at 0.5 h ([2]; male, Wistar, rat, brain, oral, 30 mg/kg, Mean Concentration, Cremophor, 0.5 h, single oral dose of extract 30 mg/kg) of 275 ± 104 ng/g and a concentration at 1 h ([2]; male, Wistar, rat, brain, oral, 30 mg/kg, Mean Concentration, Cremophor, 1 h, single oral dose of extract 30 mg/kg) of 213 ± 66.1 ng/g. The concentration at 2 h ([2]; male, Wistar, rat, brain, oral, 30 mg/kg, Mean Concentration, Cremophor, 2 h, single oral dose of extract 30 mg/kg) was 81.1 ± 23.4 ng/g, the concentration at 4 h ([2]; male, Wistar, rat, brain, oral, 30 mg/kg, Mean Concentration, Cremophor, 4 h, single oral dose of extract 30 mg/kg) was 52.1 ± 12.2 ng/g and the concentration at 6 h ([2]; male, Wistar, rat, brain, oral, 30 mg/kg, Mean Concentration, Cremophor, 6 h, single oral dose of extract 30 mg/kg) was 57.7 ± 25.9 ng/g. The concentration at 24 h ([2]; male, Wistar, rat, brain, oral, 30 mg/kg, Mean Concentration, Cremophor, 24 h, single oral dose of extract 30 mg/kg) was 3.6 ± 0.493 ng/g, the Tmax ([2]; male, Wistar, rat, brain, po, 30 mg/kg) was 2 h and the AUC(0-t) [2, 8] was 943 ng·h/mL. It also gave an AUC(0-t) [2, 9] of 1990 ng·h/mL, a Cmax [2, 8] of 275 ng/g and a Cmax [2, 9] of 301 ng/g. For the same molecule, the MRT [2, 8] was 6.19 h, the MRT [2, 9] was 7.76 h and the Kp ([2]; male, Wistar, rat, brain/whole blood, oral, 30 mg/kg, brain/whole-blood ratio, Cremophor, present study) was 2.29. The “brain peak CBD concentration” value [3] was 1.3 µg/g, the peak whole-blood concentration [3] was roughly 2 µg/mL and the “CBD levels in whole blood” value ([4]; Cremophor) was 1.43 to 231.43 ng/mL. For the same molecule, the concentration at 0.5 h [4, 10] was 26.9 ± 21.5 ng/g, the concentration at 1 h [4, 10] was 107 ± 51 ng/g and the concentration at 2 h [4, 10] was 334 ± 139 ng/g. The concentration at 4 h [4, 10] was 154 ± 146 ng/g, the concentration at 6 h [4, 10] was 37.6 ± 11.3 ng/g and the concentration at 24 h [4, 10] was 2.76 ± 2.12 ng/g. The concentration at 0.5 h [4, 11] was 120 ± 93.5 ng/g, the concentration at 1 h [4, 11] was 109 ± 35.4 ng/g and the concentration at 2 h [4, 11] was 46.5 ± 15.7 ng/g. It also gave a concentration at 4 h [4, 11] of 35.1 ± 4.71 ng/g, a concentration at 6 h [4, 11] of 31.4 ± 9.28 ng/g and a concentration at 24 h [4, 11] of 12.3 ± 18 ng/g. It also gave a concentration at 0.5 h [4, 12] of 120 ng/mL, a concentration at 1 h [4, 12] of 109 ng/mL and a concentration at 2 h [4, 12] of 46.5 ng/mL. The concentration at 4 h [4, 12] was 35.1 ng/mL, the concentration at 6 h [4, 12] was 31.4 ng/mL and the concentration at 24 h [4, 12] was 12.3 ng/mL. The concentration at 0.5 h [4, 13] was 26.9 ng/mL, the concentration at 1 h [4, 13] was 107 ng/mL and the concentration at 2 h [4, 13] was 334 ng/mL. The concentration at 4 h [4, 13] was 154 ng/mL, the concentration at 6 h [4, 13] was 37.6 ng/mL and the concentration at 24 h [4, 13] was 2.76 ng/mL. It also gave an AUC(0-t) [4, 14] of 988 ng·h/mL, an AUC(0-t) [4, 15] of 1290 ng·h/mL and a Cmax [4, 14] of 120 ng/mL. It also gave a Cmax [4, 15] of 334 ng/mL, an MRT [4, 14] of 12 h and an MRT [4, 15] of 4.03 h. For the same molecule, the Tmax ([4]; male, Wistar, rat, po, 30 mg/kg, Tmax, Rapae oleum, single oral dose of extract 30 mg/kg) was 2 h, the “CBD levels in whole blood” value ([4]; oil (Rapae oleum)) was 1.06 to 588.03 ng/mL and the “time concentrations were detectable after administration” value ([4]; single oral dose of extract 30 mg/kg) was “up to 24 h”. It also gave a CL [4, 16] of 7.75 L/h, a Tmax [4, 16] of 0.5 h and a Vd [4, 16] of 69.66 L. The CL [4, 17] was 5.85 L/h, the Vd [4, 17] was 28.29 L and the “peak concentration in the blood” value ([5]; oral CBD 120 mg/kg in Cremophor, at 2 h) was 2 µg/mL. For the same molecule, the “peak concentration in the blood” value ([5]; oral CBD 120 mg/kg in Solutol, at 6 h) was 3.2 µg/mL, the “levels in whole blood (average)” value [6, 18] was 0.93 ng/mL and the “levels in whole blood (range)” value [6, 18] was 0.3 to 2.6 ng/mL. The “time detectable after administration” value ([6]; gelatin capsules with extract) was 3 to 4 h and the whole-blood concentration [7] was “about 5 ng/mL”.

Source: paper PMC10304291, “THC-Reduced Cannabis sativa L.—How Does the Solvent Determine the Bioavailability of Cannabinoids Given Orally?” (Nutrients, 2023)
